{
  "source": "patent US9458100B2",
  "about": "“Synthesis and growth regulatory activity of a prototype member of a new family of aminothiol radioprotectors” (Wisconsin Alumni Research Foundation, priority 2012, dated 2016)",
  "key": {"mouse [1]": {"system": "mouse", "conditions": "intraperitoneal; published value; cited from earlier work"}, "mouse [2]": {"system": "mouse", "assay": "Systemic toxicity, maximum tolerated dose in mouse", "type": "in vivo", "conditions": "for Mouse IP MTD: intraperitoneal", "method": "(§1) During the development of embodiments of the technology provided herein, embodiments of compounds described herein and/or encompassed by the synthetic schemes were tested for systemic toxicity and radioprotection in mouse and rat models (Table 2). Toxic doses are shown as the “maximum tolerated dose” (“MTD”) for intraperitoneal (IP), oral, and subcutaneous (SC) administration routes in Table 2.\n(§2) Doses expressed as a fraction of “MTD” are expressed as a fraction of the “maximum tolerated dose”. Doses expressed in units of ug/g correspond to micrograms of the compound per gram of body weight."}, "[3]": {"system": "mice exposed to whole-body radiation", "assay": "Mouse survival after whole-body radiation (systemic radioprotection)", "type": "in vivo", "conditions": "for Mouse % Survival: 8.63 Gy whole-body radiation", "method": "Exposure of a control mouse to the same dose of radiation in the absence of PrC-210 administration (e.g., a water-only control) is 100% lethal (FIG. 4, “IP Water”). Each treatment group contained 20 mice. The dose of PrC-210 was 252 μg/g body weight.\nIn additional experiments, female ICR mice received 200 μl doses (e.g., 900 μg/g body weight) of PrC-210 dissolved in water by gavage at the indicated times prior to irradiation (See FIG. 6). At 0 min, mice were irradiated with 9.0 Gy of whole-body radiation in a CS^137 irradiator. Mice were returned to housing and their weights and survival were monitored for the next 60 days. There were six mice in each of the treatment groups.\n[…] Survival rates greater than the 0% Survival seen in the vehicle control group were attributed to systemic radioprotection conferred by the systemically administered radioprotector molecule."}, "ferret": {"system": "ferret", "assay": "Ferret retch/emesis model", "type": "in vivo"}, "[4]": {"system": "rats exposed to whole-body radiation", "assay": "Rat survival after whole-body radiation (oral radioprotection)", "type": "in vivo", "method": "Female Sprague-Dawley rats received 200 μl doses of PrC-210 dissolved in water by gavage a time of 60 minutes prior to irradiation (time=−60 min). […] Rats were returned to housing and their weights and survival were monitored for the next 60 days. There were six rats in each of the treatment groups. As shown by FIG. 5, oral PrC-210 confers 100% protection against an otherwise 100% lethal dose of whole-body radiation."}, "[5]": {"system": "radiation dermatitis in rat skin", "assay": "Rat radiation dermatitis assay with topical application before irradiation", "type": "in vivo", "conditions": "topical in ethanol/water vehicle four times in the 2 h before 17.33 Gy; scored 13 days later", "method": "To determine if PrC-210 could function as a topical radioprotector that could prevent radiation dermatitis when applied prior to a cancer patient's daily radiotherapy, a rat assay that realistically mimics human radiation dermatitis was created. This assay quantifies the severity of radiation dermatitis in rat skin 13 days after a single radiation dose of 17.33 Gy. In this study, PrC-210 was applied to rat skin in an ethanol/water delivery vehicle four times in the 2 h before irradiation, and control rats received only topical vehicle before irradiation (FIG. 2). Additional drug/irradiation groups of three rats each received either the alkyl-thiol moiety or the alkyldiamine moiety from PrC-210 in the same delivery vehicle. Following the 17.33 Gy irradiation of a […] patch of dorsal skin on the rats' backs, rats were scored 13 days later.\nMolecules were applied to skin in an alcohol/water delivery vehicle prior to receiving a 17.33 Gy radiation dose to the 1.5 cm×3.0 cm skin site. Radiation dermatitis severity (e.g., % of the site covered by scab material) was scored 13 days following irradiation."}, "rat [6]": {"system": "rat", "assay": "Systemic toxicity, maximum tolerated dose in rat", "type": "in vivo", "method": "as §1, §2"}, "[7]": {"assay": "Biodistribution of intravenous bolus of 14C PrC-210 in rat", "type": "in vivo", "method": "During the development of embodiments of the technology provided herein, experiments were conducted to test the biodistribution of an intravenous bolus dose of radiolabeled (e.g., ^14C) PrC-210 in a rat host. In these experiments, an intravenous bolus of 100 μCi of ^14C PrC-210 was administered into an indwelling catheter in a 300 g rat."}, "rat [8]": {"system": "rat", "assay": "Rat aortic blood pressure monitoring (hypotension side effect)", "type": "in vivo", "conditions": "anesthetized rats, intraperitoneal injection", "method": "Blood pressure was monitored in the aortic artery of rats using a high-fidelity pressure transducer. Rats were continually anesthetized with 2% isofluorane, and drug doses were administered by intraperitoneal injection. Rats received intraperitoneal saline injections until these injections induced no change in monitored blood pressure. Indicated doses of PrC-210 or amifostine (FIG. 8) were administered and changes in blood pressure and heart rate were recorded. A condensed summary of drug-induced changes for all cannulated rats is shown in panel C. Doses of epinephrine (Epi; hypertensive) were also recurrently admininesterod to test if previous PrC-210 or amifostine doses could be modified."}},
  "note": "Where two headings read alike, the source gives them in different places. Marks after values point to notes of the source that are not given here.",
  "data": [
    {"smiles": "NCCCNCCSP(=O)(O)O", "note": "[Amifostine, amifostine, reference compound]", "values": [
      {"measurement": "Mouse IP MTD", "setting": "mouse [1]", "result": "800^c μg/g b.w."},
      {"measurement": "Mouse IP MTD", "setting": "mouse [2]", "result": "760^d μg/g b.w."},
      {"measurement": "Mouse % Survival", "setting": "[3]; at IP 0.5 MTD: 400 ug/g", "result": 88, "unit": "%"},
      {"measurement": "retch/emesis responses", "setting": "ferret; in vivo", "result": "caused retch/emesis responses in each of the four ferrets tested"}
    ]},
    {"smiles": "CN(C)C(=O)C(CCN1CCC(O)(c2ccc(Cl)cc2)CC1)(c1ccccc1)c1ccccc1", "note": "[Loperamide]", "values": [
      {"measurement": "retch/emesis responses", "setting": "ferret; ferret equivalent of highest human dose, loperamide as positive control 14 days later", "result": "robust retch/emesis response in each of the 14 ferrets"}
    ]},
    {"smiles": "CNCC(CNC)CSSCC(CNC)CNC", "note": "[PrC-210 Disulfide]", "values": [
      {"measurement": "Mouse IP MTD", "setting": "mouse [2]", "result": 155, "unit": "μg/g b.w."},
      {"measurement": "Mouse % Survival", "setting": "[3]; at IP 0.5 MTD: 78 ug/g", "result": "<5", "unit": "%"},
      {"measurement": "Mouse % Survival", "setting": "[3]; at IP 0.9 MTD: 140 ug/g", "result": 37, "unit": "%"}
    ]},
    {"smiles": "CNCC(CS)CNC", "note": "[PrC-210, 3-(methyl-amino)-2-((methylamino)methyl)propane-1-thiol]", "values": [
      {"measurement": "Mouse IP MTD", "setting": "mouse [2]; determined using best fit analysis of survival data", "result": "422^b μg/g b.w."},
      {"measurement": "Mouse IP MTD", "setting": "mouse [2]; determined using probit analysis of survival data", "result": "504^a μg/g b.w."},
      {"measurement": "Mouse ORAL MTD", "setting": "mouse [2]; oral", "result": 1780, "unit": "μg/g b.w."},
      {"measurement": "Mouse SC MTD", "setting": "mouse [2]; subcutaneous", "result": 431, "unit": "μg/g b.w."},
      {"measurement": "Rat % Survival", "setting": "[4]; at ORAL 0.5 MTD: 900 ug/g, 9.5 Gy whole-body radiation", "result": "100% (at ORAL 0.5 MTD: 900 ug/g)"},
      {"measurement": "protection against otherwise 100% lethal whole-body radiation", "setting": "[4]; female Sprague-Dawley rats, oral gavage 60 minutes prior, monitored 60 days", "result": 100, "unit": "%"},
      {"measurement": "prevention of radiation dermatitis", "setting": "[5]", "result": "completely prevent radiation dermatitis"},
      {"measurement": "Mouse % Survival", "setting": "[3]; at IP 0.5 MTD: 211 ug/g", "result": 98, "unit": "%"},
      {"measurement": "Mouse % Survival", "setting": "[3]; at IP 0.5 MTD: 252 ug/g", "result": 100, "unit": "%"},
      {"measurement": "Mouse % Survival", "setting": "[3]; at ORAL 0.87 MTD: 1550 ug/g (only dose tested)", "result": 100, "unit": "%"},
      {"measurement": "protection against otherwise 100% lethal whole-body radiation", "setting": "[3]; female ICR mice, oral 900 μg/g body weight, 60 minutes before 9.0 Gy", "result": 100, "unit": "%"},
      {"measurement": "survival", "setting": "[3]; mouse, IP 252 μg/g body weight, 30 minutes before 8.75 Gy whole-body radiation", "result": 100, "unit": "%"},
      {"measurement": "Rat IP MTD", "setting": "rat [6]; intraperitoneal", "result": 485, "unit": "μg/g b.w."},
      {"measurement": "Rat ORAL MTD", "setting": "rat [6]; oral", "result": 1974, "unit": "μg/g b.w."},
      {"measurement": "Recovery (carcass)", "setting": "[7]; 100 uCi IV", "result": 6.89, "unit": "%"},
      {"measurement": "Cmax", "setting": "[7]; 100 uCi IV 14C PrC-210", "result": "21,400 ng-eq/g"},
      {"measurement": "Tmax", "setting": "[7]; 100 uCi IV 14C PrC-210", "result": 30, "unit": "min"},
      {"measurement": "Recovery2 (systemic)", "setting": "[7]; 100 uCi IV, excreta + carcass", "result": 81.23, "unit": "%"},
      {"measurement": "Recovery3 (total)", "setting": "[7]; 100 uCi IV, systemic + skin + cage wash + cage wipe + enclosure", "result": 84.20, "unit": "%"},
      {"measurement": "Recovery1 (excreta)", "setting": "[7]; 100 uCi IV, urine + urine wipes + feces", "result": 74.34, "unit": "%"},
      {"measurement": "administered radioactivity eliminated via feces", "setting": "[7]; intravenous 14C PrC-210", "result": "approximately 10%"},
      {"measurement": "administered radioactivity eliminated via urine", "setting": "[7]; intravenous 14C PrC-210", "result": "approximately 50%"},
      {"measurement": "retch/emesis responses", "setting": "ferret; in vivo", "result": "zero retching or emesis responses"},
      {"measurement": "hypotension side effects", "setting": "rat [8]", "result": "does not cause hypotension side effects"}
    ]},
    {"smiles": "NCC(CN)CS", "note": "[PrC-211]", "values": [
      {"measurement": "Mouse IP MTD", "setting": "mouse [2]", "result": 475, "unit": "μg/g b.w."},
      {"measurement": "Mouse % Survival", "setting": "[3]; at IP 0.25 MTD: 118 ug/g", "result": 37, "unit": "%"},
      {"measurement": "Mouse % Survival", "setting": "[3]; at IP 0.5 MTD: 238 ug/g", "result": 47, "unit": "%"},
      {"measurement": "Mouse % Survival", "setting": "[3]; at IP 0.9 MTD: 427 ug/g", "result": 100, "unit": "%"}
    ]}
  ]
}
